Tested on: B16–F10 cells
Experiment: RNaseq gene expression profiling
Type: cell-based, mouse
Procedure: AC-340 superinduced CYP24A1 expression in all cell lines tested, and ZG-126 appeared to be a hyperagonist in SK-MEL-28 cells. […] AC-340 treatment produced 3 times more differentially expressed genes (DEGs) than AM-193, with ZG-126 producing an intermediate number (Figure A). […] The varying effects of each treatment on the numbers of regulated genes and the fold changes observed are reflected in plots of log-fold changes and volcano plots (Figure S3B).
A quality control was performed before sequencing in paired-end at 50 M reads by Illumina NovaSeq 6000 S4 PE100. After sequencing, the FASTQ files were sent to us and all downstream analysis were performed on Galaxy (Galaxy (usegalaxy.org)). First, trimmomatic tool was used to remove the adapters from the reads. Then, using the alignment tool, HISAT2, the reads were mapped to the mouse genome. In the next step, the counted reads were annotated and finally the list of differentially expressed genes (DEGs) for each treatment was obtained using the preinstalled R package called Limma.

For CCC(CC)(c1ccc(OCCCCCC(=O)NO)cc1)c1ccc(OCC(O)C(C)(C)C)c(C)n1 (stereo not shown) [AM-193], the “logFC Rnf145” value (RNAseq, gene Rnf145, AM193-significant genes) was -0.7842, the “logFC Rpia” value (RNAseq, gene Rpia, AM193-significant genes) was -0.7096 and the “logFC Samd1” value (RNAseq, gene Samd1, AM193-significant genes) was -0.798. For the same compound, the “logFC Selenbp1” value (RNAseq, gene Selenbp1, AM193-significant genes) was -1.012, the “logFC Sema7a” value (RNAseq, gene Sema7a, AM193-significant genes) was -0.8174 and the “logFC Sfxn2” value (RNAseq, gene Sfxn2, AM193-significant genes) was -0.9624. For the same compound, the “logFC Sigmar1” value (RNAseq, gene Sigmar1, AM193-significant genes) was -0.7437, the “logFC Sik1” value (RNAseq, gene Sik1, AM193-significant genes) was -0.7218 and the “logFC Ska3” value (RNAseq, gene Ska3, AM193-significant genes) was -0.7116. For the same compound, the “logFC Slc2a1” value (RNAseq, gene Slc2a1, AM193-significant genes) was -1.04, the “logFC Slc37a4” value (RNAseq, gene Slc37a4, AM193-significant genes) was -0.9222 and the “logFC Slc39a10” value (RNAseq, gene Slc39a10, AM193-significant genes) was -0.7848. The “logFC Snrpa1” value (RNAseq, gene Snrpa1, AM193-significant genes) was -1.002, the “logFC Snrpd1” value (RNAseq, gene Snrpd1, AM193-significant genes) was -0.7702 and the “logFC Spc24” value (RNAseq, gene Spc24, AM193-significant genes) was -0.7364. The “logFC Srm” value (RNAseq, gene Srm, AM193-significant genes) was -1.055, the “logFC Tarbp1” value (RNAseq, gene Tarbp1, AM193-significant genes) was -0.7191 and the “logFC Tbl2” value (RNAseq, gene Tbl2, AM193-significant genes) was -0.8635. For the same compound, the “logFC Tet1” value (RNAseq, gene Tet1, AM193-significant genes) was -0.8944, the “logFC Tfap4” value (RNAseq, gene Tfap4, AM193-significant genes) was -1.016 and the “logFC Tinagl1” value (RNAseq, gene Tinagl1, AM193-significant genes) was -0.9151. The “logFC Tk1” value (RNAseq, gene Tk1, AM193-significant genes) was -0.987, the “logFC Tonsl” value (RNAseq, gene Tonsl, AM193-significant genes) was -0.711 and the “logFC Tpi1” value (RNAseq, gene Tpi1, AM193-significant genes) was -0.895. For the same compound, the “logFC Trip13” value (RNAseq, gene Trip13, AM193-significant genes) was -0.8647, the “logFC Trmt61a” value (RNAseq, gene Trmt61a, AM193-significant genes) was -0.7832 and the “logFC Trpm1” value (RNAseq, gene Trpm1, AM193-significant genes) was -0.743. For the same compound, the “logFC Ttk” value (RNAseq, gene Ttk, AM193-significant genes) was -0.8273, the “logFC Uba7” value (RNAseq, gene Uba7, AM193-significant genes) was -0.9636 and the “logFC Ugdh” value (RNAseq, gene Ugdh, AM193-significant genes) was -0.8794. The “logFC Ugp2” value (RNAseq, gene Ugp2, AM193-significant genes) was -0.7144, the “logFC Uhrf1” value (RNAseq, gene Uhrf1, AM193-significant genes) was -0.8121 and the “logFC Xrcc3” value (RNAseq, gene Xrcc3, AM193-significant genes) was -0.7656. For the same compound, the “logFC Abca12” value (RNaseq, B16–F10 cells, gene Abca12 (ATP-binding cassette, sub-family A (ABC1), member 12), sheet AM193-significant genes) was -1.21, the “logFC Ak4” value (RNaseq, B16–F10 cells, gene Ak4 (adenylate kinase 4), sheet AM193-significant genes) was -1.909 and the “logFC Bnip3” value (RNaseq, B16–F10 cells, gene Bnip3 (BCL2/adenovirus E1B interacting protein 3), sheet AM193-significant genes) was -1.2222. For the same compound, the “logFC Cck” value (RNaseq, B16–F10 cells, gene Cck (cholecystokinin), sheet AM193-significant genes) was -1.792, the “logFC Cited1” value (RNaseq, B16–F10 cells, gene Cited1 (Cbp/p300-interacting transactivator with Glu/Asp-rich carboxy-terminal domain 1), sheet AM193-significant genes) was -1.397 and the “logFC Dna2” value (RNaseq, B16–F10 cells, gene Dna2 (DNA replication helicase/nuclease 2), sheet AM193-significant genes) was -1.157. For the same compound, the “logFC Gpd1” value (RNaseq, B16–F10 cells, gene Gpd1 (glycerol-3-phosphate dehydrogenase 1 (soluble)), sheet AM193-significant genes) was -1.351, the “logFC H2bc12” value (RNaseq, B16–F10 cells, gene H2bc12 (H2B clustered histone 12), sheet AM193-significant genes) was -1.307 and the “logFC H3c8” value (RNaseq, B16–F10 cells, gene H3c8 (H3 clustered histone 8), sheet AM193-significant genes) was -1.15. The “logFC Hk2” value (RNaseq, B16–F10 cells, gene Hk2 (hexokinase 2), sheet AM193-significant genes) was -1.284, the “logFC Kit” value (RNaseq, B16–F10 cells, gene Kit (KIT proto-oncogene receptor tyrosine kinase), sheet AM193-significant genes) was -2.0666 and the “logFC Lpar5” value (RNaseq, B16–F10 cells, gene Lpar5 (lysophosphatidic acid receptor 5), sheet AM193-significant genes) was -1.721. For the same compound, the “logFC Megf6” value (RNaseq, B16–F10 cells, gene Megf6 (multiple EGF-like-domains 6), sheet AM193-significant genes) was -1.186, the “logFC Mgll” value (RNaseq, B16–F10 cells, gene Mgll (monoglyceride lipase), sheet AM193-significant genes) was -1.2265 and the “logFC Mknk2” value (RNaseq, B16–F10 cells, gene Mknk2 (MAP kinase-interacting serine/threonine kinase 2), sheet AM193-significant genes) was -1.156. The “logFC Nr4a3” value (RNaseq, B16–F10 cells, gene Nr4a3 (nuclear receptor subfamily 4, group A, member 3), sheet AM193-significant genes) was -2.364, the “logFC Oas2” value (RNaseq, B16–F10 cells, gene Oas2 (2'-5' oligoadenylate synthetase 2), sheet AM193-significant genes) was -1.532 and the “logFC Pafah1b3” value (RNaseq, B16–F10 cells, gene Pafah1b3 (platelet-activating factor acetylhydrolase, isoform 1b, subunit 3), sheet AM193-significant genes) was -1.354. The “logFC Pdk1” value (RNaseq, B16–F10 cells, gene Pdk1 (pyruvate dehydrogenase kinase, isoenzyme 1), sheet AM193-significant genes) was -1.253, the “logFC Sapcd2” value (RNaseq, B16–F10 cells, gene Sapcd2 (suppressor APC domain containing 2), sheet AM193-significant genes) was -1.167 and the “logFC Slc16a3” value (RNaseq, B16–F10 cells, gene Slc16a3 (solute carrier family 16 (monocarboxylic acid transporters), member 3), sheet AM193-significant genes) was -1.321. For the same compound, the logFC (gene 1700019D03Rik) was 1.314, the logFC (gene 4930455G09Rik) was 1.641 and the logFC (gene Abca8b) was 1.273. It also gave a logFC (gene Abcd2) of 4.745, a logFC (gene Adamts7) of 1.528 and a logFC (gene Adamtsl5) of 1.436. For the same compound, the logFC (gene Adssl1) was 1.51, the logFC (gene Afap1l2) was 1.64 and the logFC (gene Akna) was 1.375. The logFC (gene Aldh1l2) was 1.268, the logFC (gene Ankrd23) was 1.409 and the logFC (gene Asns) was 1.391. The logFC (gene Atp1b2) was 1.2305, the logFC (gene Atp2b4) was 1.278 and the logFC (gene Atp8b3) was 1.445. For the same compound, the logFC (gene Bmf) was 1.318, the logFC (gene C1s1) was 1.363 and the logFC (gene Cacng7) was 1.328. For the same compound, the logFC (gene Car11) was 1.215, the logFC (gene Cebpb) was 1.421 and the logFC (gene Chn1) was 1.21. It also gave a logFC (gene Cnn2) of 1.571, a logFC (gene Col20a1) of 1.535 and a logFC (gene Csdc2) of 1.317. It also gave a logFC (gene Cth) of 1.456, a logFC (gene Ctsf) of 1.525 and a logFC (gene Cyb5r2) of 1.681. It also gave a logFC (gene Dagla) of 1.633, a logFC (gene Dbp) of 1.36 and a logFC (gene Ddr2) of 1.2413. The logFC (gene Dgat1) was 1.203, the logFC (gene Dgka) was 1.571 and the logFC (gene Dglucy) was 1.251. For the same compound, the logFC (gene Eef2k) was 1.203, the logFC (gene Efhd1) was 5.014 and the logFC (gene Ehd3) was 1.292. For the same compound, the logFC (gene Fam83f) was 1.352, the logFC (gene Fam178b) was 1.456 and the logFC (gene Fbxo2) was 1.302. For the same compound, the logFC (gene Fbxo41) was 1.469, the logFC (gene Fry) was 1.598 and the logFC (gene Fstl1) was 1.467. It also gave a logFC (gene Gjc3) of 1.602, a logFC (gene Gli1) of 1.6149 and a logFC (gene Glipr2) of 1.645. For the same compound, the logFC (gene Gm19705) was 1.68, the logFC (gene Gpr158) was 1.296 and the logFC (gene Gpr162) was 1.524. It also gave a logFC (gene Gstm7) of 1.44, a logFC (gene Heg1) of 1.713 and a logFC (gene Hid1) of 1.246. For the same compound, the logFC (gene Hoga1) was 1.608, the logFC (gene Hrc) was 1.3608 and the logFC (gene Id3) was 1.638. It also gave a logFC (gene Inpp5e) of 1.325, a logFC (gene Itga8) of 1.267 and a logFC (gene Jam2) of 1.325. The logFC (gene Kif9) was 1.315, the logFC (gene Lrrc75b) was 1.346 and the logFC (gene Lrtm2) was 4.986. For the same compound, the logFC (gene Ltbp4) was 1.39, the logFC (gene Mettl27) was 1.2162 and the logFC (gene Mmp11) was 1.398. It also gave a logFC (gene Mmp28) of 4.741, a logFC (gene Mxd4) of 1.4725 and a logFC (gene Nccrp1) of 5.249. It also gave a logFC (gene Neurl3) of 1.34, a logFC (gene Notch1) of 1.541 and a logFC (gene Notch3) of 1.442. The logFC (gene Nova2) was 1.445, the logFC (gene Nupr1) was 1.537 and the logFC (gene Nwd1) was 1.316. The logFC (gene Pcdh1) was 1.75, the logFC (gene Pck2) was 1.456 and the logFC (gene Pdlim2) was 1.539. For the same compound, the logFC (gene Phlda3) was 1.237, the logFC (gene Phyhd1) was 1.588 and the logFC (gene Pierce2) was 1.323. It also gave a logFC (gene Plk2) of 1.532, a logFC (gene Prelp) of 5.529 and a logFC (gene Prox1) of 1.361. For the same compound, the logFC (gene Ptges) was 4.4154, the logFC (gene Reck) was 1.669 and the logFC (gene Rom1) was 1.351. For the same compound, the logFC (gene Scamp1) was 1.346, the logFC (gene Scube3) was 1.291 and the logFC (gene Serpinb9b) was 1.695. For the same compound, the logFC (gene Shank1) was 1.222, the logFC (gene Slc17a7) was 1.733 and the logFC (gene Slc25a35) was 1.406. It also gave a logFC (gene Slc25a42) of 1.347, a logFC (gene Slc43a2) of 1.207 and a logFC (gene Sparc) of 1.263. The logFC (gene Spn) was 1.262, the logFC (gene Sync) was 1.481 and the logFC (gene Syt7) was 1.364. For the same compound, the logFC (gene Trnp1) was 1.3245, the logFC (gene Vdr) was 5.618 and the logFC (gene Wnt10a) was 4.9613. For the same compound, the logFC (gene Zfr2) was 1.286.

From PMC12517324, “Hyperagonism of a Vitamin D Receptor Agonist/Histone Deacetylase Inhibitor Hybrid Molecule” (Journal of Medicinal Chemistry, 2025)
